Activity calls are given as the source filed them.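 The calls were made as follows: active = fitted half-maximal concentration for a cytotoxic signal drop no higher than ten times the top valid dose tested; inconclusive = flat curve between -70 and -30 percent, or an unreliable fit; inactive = flat within 30 percent, signal rise, or potency beyond limit.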

This passage reports activity change, negative = cytotoxicity results from PubChem BioAssay AID504726 (Broad Institute, 2011).

The nature of this assay: viability loss in HeLa cells – cell-based, 24 h, cherry-picked samples, cytotoxicity control, dose response (AID 504726).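 Also: 0% = DMSO neutral controls and -100% = mitoxantrone positive controls.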 The note with it: HeLa viability, CellTiter-Glo ATP luminescence, 24 h; at 35 µM (top of the series). (In general: Cellular ATP, detected with luciferase, serves as a proxy for viable cell number.)
As to `O=c1cc(-c2ccc(O)c(O)c2)oc2cc(O[C@@H]3O[C@H](CO)[C@@H](O)[C@H](O)[C@H]3O)cc(O)c12`, the activity change, negative = cytotoxicity was -8.55% (inactive).

Consider `CCN(CC)c1ccc2cc(S(=O)(=O)c3ccc(C)cc3)c(=O)oc2c1`, for which the activity change, negative = cytotoxicity was -3.69% (inactive). As for `Nc1cccc2c(O)cc(S(=O)(=O)O)cc12`, the activity change, negative = cytotoxicity was -1.83% (inactive).

With `Fc1ccc(-c2cc(C(F)(F)F)nc(-n3cc(Cl)cn3)n2)cc1`, the activity change, negative = cytotoxicity is -12% (inactive). The same measure for `C=CCn1c(C)cc(-c2csc(NC(=O)CCc3nc4ccccc4c(=O)[nH]3)n2)c1C`: -6.5% (inactive); for `O=C1CCCC2=C1C(c1ccc(O)c(O)c1)Nc1ccc3ncccc3c12` (stereo not given): -1.08% (inactive).

In the case of `CC(=O)Nc1ccc(S(=O)(=O)Nc2nc3ccccc3nc2Nc2ccc(C(=O)O)c(O)c2)cc1`, the activity change, negative = cytotoxicity is -13.1% (inactive). As to `CC(=O)NC(C(=O)c1ccccc1)C(=O)c1ccccc1`, the activity change, negative = cytotoxicity was 7.04% (inactive). In the case of `Clc1ccc(-c2nnc3sc(-c4ccc(Br)o4)nn23)cc1` it was -3.6% (inactive); in that of `CCOC(=O)C1Nc2ccccc2C2C(O)C(O)CC12` (stereo not given), 7.37% (inactive); in that of `CC1CC(C)(C)NC(=S)N1CC(=O)N(C)Cc1ccccc1` (stereo not given), -2.63% (inactive). Take `COC(=O)c1c(C)oc2ccc(N(C(C)=O)S(=O)(=O)c3ccccc3)cc12`: the activity change, negative = cytotoxicity was 1.25% (inactive).

`O=C(O)C1Nc2c(O)cc(Cl)c([N+](=O)[O-])c2C2C=CCC12` (stereo not given): the activity change, negative = cytotoxicity was -21.5% (inactive).

In the case of `COC(=O)c1cccc(COC(=O)c2ccccc2NC(=O)c2ccco2)c1`, the activity change, negative = cytotoxicity is -11.1% (inactive). The same measure for `NC(=O)c1ccc(NC(=O)C2COc3ccccc3O2)cc1` (stereo not given): -1.55% (inactive); for `Cc1ccc(C)c(N2CCN(C(=O)c3cc4ccccn4n3)CC2)c1`: 3.79% (inactive). With `CCc1noc(C)c1C(=O)NCCc1c[nH]c2ccccc12`, the activity change, negative = cytotoxicity was -12.2% (inactive).

With `C=C(C)C(=O)Nc1cccc(C2=NOC3(C2)C[C@@H](C(N)=O)N(C(=O)C2(C)CC2)C3)c1` (stereo not given in full), the activity change, negative = cytotoxicity was 1.25% (inactive).

As for `CC(=O)OCCn1c2nc(=O)[nH]c(=O)c-2nc2cc(C)c(C)cc21`, the activity change, negative = cytotoxicity is -8.08% (inactive). As to `CC(C)(CS(=O)(=O)[O-])NC(=O)CC[N+](C)(C)CCO`, the activity change, negative = cytotoxicity is 2.35% (inactive).

Take `NC(=O)C1=NOC(CNc2ncc(C(F)(F)F)cc2Cl)C1` (stereo not given): the activity change, negative = cytotoxicity was -1.63% (inactive).

With `Cc1nn(Cc2c(F)c(F)c(F)c(F)c2F)c(C)c1NC(=O)c1ccnn1C`, the activity change, negative = cytotoxicity is -4.82% (inactive).

Turning to `Cc1noc(C)c1-c1nc(CSc2ccccc2)no1`, the activity change, negative = cytotoxicity was -16.7% (inactive).

On to `CCCc1nnc(NC(=O)CCC(=O)NCc2ccc(OC)cc2)s1`, for which the activity change, negative = cytotoxicity was -1.54% (inactive). As to `CCCCc1ccc(C(=O)O)nc1`, the activity change, negative = cytotoxicity is -11.4% (inactive). In the case of `Cc1ccc(NC(=O)CN(C)C(=O)c2nn(C)c(=O)c3ccccc23)cc1` it was -13.7% (inactive); in that of `Cc1cccc(NC(=O)CN2C(=O)NC(C)(c3ccc4ccccc4c3)C2=O)n1` (stereo not given), -4.54% (inactive). In the case of `Nc1c(-c2ccccn2)cnn1-c1nc(-c2ccc(F)cc2)cs1` it was -5.27% (inactive); in that of `CSC(=NS(=O)(=O)c1ccc(N)cc1)NS(=O)(=O)c1cccs1`, -2.85% (inactive); in that of `c1ccc2[nH]c3cc4ncnc4cc3nc2c1`, 5.9% (inactive). `CC(OC(=O)CCN1C(=O)C2CC=CCC2C1=O)C(=O)Nc1ccc(F)cc1` (stereo not given): the activity change, negative = cytotoxicity was -6.8% (inactive). In the case of `O=C(O)c1cccc(NC2=Nc3cccc4cccc2c34)c1` it was -4.32% (inactive); in that of `O=C(O)c1ccccc1C1=Nc2ccc(O)cc2Oc2cc(O)ccc21`, -3.9% (inactive); in that of `O=C(O)c1[nH]c2ccccc2c1C(c1cc(Cl)cc([N+](=O)[O-])c1O)c1c(C(=O)O)[nH]c2ccccc12`, -6.4% (inactive).

As for `Nc1ccc2c3c(cccc13)C(=O)N(c1ccccc1)C2=O`, the activity change, negative = cytotoxicity was 19% (inactive). Turning to `COc1cc2c(cc1OC)CN(C(=O)c1ccc(S(=O)(=O)N3CCCC3)cc1)CC2`, the activity change, negative = cytotoxicity is 1.87% (inactive). As to `O=C(Cn1c2ccccc2c2nc3n(c(=O)c21)CCS3)Nc1ccccc1C(F)(F)F`, the activity change, negative = cytotoxicity was -2.68% (inactive). `Cc1ccc(NS(=O)(=O)c2ccc(C(=O)NCCCN3CCCC3=O)cc2)cc1`: the activity change, negative = cytotoxicity is -5.92% (inactive).

In the case of `COC(=O)Cn1c(=NC(=O)c2sc3ccccc3c2Cl)sc2cc(S(N)(=O)=O)ccc21`, the activity change, negative = cytotoxicity is -2.51% (inactive). For the compound `CC(Oc1ccccc1)c1nnc(N)s1` (stereo not given), the activity change, negative = cytotoxicity is -3.11% (inactive).

With `O=C(CSc1nc2ccccc2[nH]1)Nc1cccc(S(=O)(=O)N2CCOCC2)c1`, the activity change, negative = cytotoxicity is 3.94% (inactive). The same measure for `Cc1ccc(C(=O)CCC(=O)Nc2ncccc2C)cc1`: -3.79% (inactive); for `CSCCC(NC(=O)c1ccccc1Cl)C(=O)N1CCCC(C)C1` (stereo not given): -15.7% (inactive); for `N#CC1=C(N)Oc2ccc3ccc(O)cc3c2C1c1ccsc1` (stereo not given): 5.49% (inactive). Turning to `CC(C)=C[C@@H]1C[C@H](C)[C@H]2CC[C@H](C)c3c(O[C@@H]4O[C@@H](C)[C@@H](O)[C@@H](O)[C@@H]4O)c(O)c(C)c1c32`, the activity change, negative = cytotoxicity was -5.47% (inactive).

For `O=C(O)CCN1C(=O)/C(=C\c2ccc(-c3nc4ccccc4s3)o2)SC1=S`, the activity change, negative = cytotoxicity is 1.33% (inactive). The same measure for `O=C(C1CCCO1)N1CCN(c2ncccn2)CC1` (stereo not given): -0.396% (inactive); for `COc1ccc(CNC(=O)C2CCC(CNC(=O)[C@@H]3Cc4ccccc4CN3)CC2)cc1` (stereo not given in full): -2.6% (inactive); for `O=C(CCN1C(=O)/C(=C/c2ccco2)SC1=S)Nc1ccc(C(=O)O)c(O)c1`: 2.73% (inactive).

Regarding `O=C(O)C(Cc1ccccc1)N1C(=O)/C(=C/C=C/c2ccco2)SC1=S` (stereo not given), the activity change, negative = cytotoxicity was -11.4% (inactive).

For the compound `Cc1ccsc1/C=N/NC(=O)Cc1ccc(Cl)cc1`, the activity change, negative = cytotoxicity was 1.7% (inactive). In the case of `COC(=O)c1sc(C(F)(F)F)c(-c2ccccc2)c1S(=O)(=O)N1CCOCC1` it was -14.2% (inactive). In the case of `COC(=O)C1=COC(C)C2CN3CCc4c([nH]c5ccccc45)C3CC12` (stereo not given) it was -14.1% (inactive); in that of `Cc1cc(/C=C2\C(=O)NC(=O)N(Cc3ccccc3)C2=O)c(C)n1-c1ccc(Cl)c(C(=O)O)c1`, 1.64% (inactive); in that of `COc1ccc(-c2cnc3n2CCCCC3)cc1`, 0.279% (inactive). For the compound `Cc1cc(=O)oc2cc(OCC(=O)N3CCN(Cc4ccc5c(c4)OCO5)CC3)ccc12`, the activity change, negative = cytotoxicity is -5.71% (inactive). Regarding `N=C1/C(=C/c2ccc(-c3cccc(C(=O)O)c3)o2)C(=O)N=C2SC(CC(=O)N3CCOCC3)=NN12`, the activity change, negative = cytotoxicity was -4.55% (inactive).

Regarding `Fc1ccc(C2=CC(c3ccc(Br)o3)n3ncnc3N2)cc1` (stereo not given), the activity change, negative = cytotoxicity is -14.5% (inactive). In the case of `Cc1noc(C)c1C(=O)N1CCN(c2ccc(OCc3ccccc3)cc2)CC1` it was -3.67% (inactive); in that of `CCCc1cc(C(=O)Nc2ccc(C(=O)c3ccc(C)cc3)cc2)n(C)n1`, 2.14% (inactive).

Consider `CCCCn1c(N)c(N(CCOC)C(=O)c2cc(C)oc2C)c(=O)[nH]c1=O`, for which the activity change, negative = cytotoxicity is -6.37% (inactive). As for `C=C1c2cccc(O)c2C(O)=C2C(=O)[C@]3(O)C(O)=C(C(N)=O)C(=O)[C@@H](N(C)C)[C@@H]3[C@@H](O)[C@H]12`, the activity change, negative = cytotoxicity is -2.76% (inactive). In the case of `COc1[nH]c(/N=C/c2ccccc2)c(C#N)c1C#N` it was -1.43% (inactive); in that of `CN(c1ccccc1)S(=O)(=O)c1cccc(NS(=O)(=O)c2cccc(C(=O)O)c2)c1`, 3.74% (inactive); in that of `COc1ccc(NC(=O)Cc2nnc(SCC(=O)Nc3nccs3)n2C)cc1`, 5.46% (inactive). In the case of `CC(OC(=O)c1cn(C)c2ccccc12)C(=O)N1CCCC1` (stereo not given) it was -9.43% (inactive). The same measure for `O=c1c2cc(O)c(O)cc2oc2cc(O)c(C3OC(CO)C(O)C(O)C3O)c(O)c12` (stereo not given): 3.92% (inactive). On to `C=CCNC(=S)N1CCN(S(=O)(=O)c2ccc(C)cc2)CC1`, for which the activity change, negative = cytotoxicity was -6.85% (inactive). In the case of `CCC(Sc1ncccc1C(=O)O)C(=O)N1CCCC1` (stereo not given), the activity change, negative = cytotoxicity is 3.53% (inactive). The same measure for `CCOC(=O)c1sc(NC(=O)CSC(=S)N2CCN(C)CC2)nc1C`: -7.44% (inactive); for `CCOC(=O)C1(Cc2cccc(F)c2)CCN(Cc2c(C)nn(CC)c2C)CC1`: 0.828% (inactive).

Consider `CSc1ccc(/C=N/Nc2cccc(C(=O)O)c2)cc1`, for which the activity change, negative = cytotoxicity is -13% (inactive).

Regarding `OCCN(CCO)c1nc(N2CCCCC2)c2nc(N(CCO)CCO)nc(N3CCCCC3)c2n1`, the activity change, negative = cytotoxicity was -1.48% (inactive). The same measure for `COc1ccc(C(=O)OCC(=O)NC2CC2)cc1S(=O)(=O)Nc1ccc(C)cc1`: 3.27% (inactive).

For `O=C(O)c1ccc(NS(=O)(=O)c2ccc3c(c2)C2C=CCC2C(c2ccccc2F)N3)cc1` (stereo not given), the activity change, negative = cytotoxicity was -8.24% (inactive).
